Laboratory results as given in patent publication US4546176A, “7-Carboxymethoxyphenylacetamido-3-cephem derivatives and antibacterial preparations containing the same” (Eisai Co., Ltd., priority 1982, dated 1985).
Converted amounts (≈) assume the structure as drawn.

Key:
Assay type in all cases: cell-based
[1] = test system: Escher. coli NIHJ; test: Antibacterial activities (MIC), Escher. coli NIHJ; details: Escherichia coli
Description: (§1) (1) Antibacterial activities (MIC):

[2] = test system: Pseud. aeruginosa EP-01; test: Antibacterial activities (MIC), Pseud. aeruginosa EP-01; details: Pseudomonas aeruginosa, EP01
Description: as §1

[3] = test system: Kleb. pneumoniae EK-6; test: Antibacterial activities (MIC), Kleb. pneumoniae EK-6; details: Klebsiella pneumoniae, EK6
Description: as §1

[4] = test system: Ser. marcescens ES-75; test: Antibacterial activities (MIC), Ser. marcescens ES-75; details: Serratia marcescens, ES75
Description: as §1

[5] = test system: Staph. aureus 209-P; test: Antibacterial activities (MIC), Staph. aureus 209-P; details: Staphylococcus aureus
Description: as §1

[6] = test system: Proteus morganii EP-14; test: Antibacterial activities (MIC), Proteus morganii EP-14; details: Morganella morganii, EP14
Description: as §1

SMILES | MIC [1] [µg/mL] | MIC [2] [µg/mL] | MIC [3] [µg/mL] | MIC [4] [µg/mL] | MIC [5] [µg/mL] | MIC [6] [µg/mL]
CC(=O)OCC1=C(C(=O)O)N2C(=O)[C@@H](NC(=O)[C@H](NC(=O)c3coc4cc(O)c(O)cc4c3=O)c3ccc(OCC(=O)O)cc3)[C@H]2SC1 [Example 1, 7β-[D-2-(4-Carboxymethoxyphenyl)-2-(6,7-dihydroxy-4-oxo-4H-1-benzopyran-3-carboxamido)-acetamido]-3-acetoxymethyl-3-cephem-4-carboxylic acid] | 0.2 (≈ 0.293 µM) | ≤ 0.05 | ≤ 0.05 | 0.2 (≈ 0.293 µM) | 25 (≈ 36.6 µM) | 6.25 (≈ 9.14 µM)
Cn1nnnc1SCC1=C(C(=O)O)N2C(=O)[C@@H](NC(=O)[C@H](NC(=O)c3cc4ccc(O)c(O)c4oc3=O)c3ccc(OCC(=O)O)cc3)[C@H]2SC1 [Example 10, 7β-[D-2-(4-Carboxymethoxyphenyl)-2-(7,8-dihydroxyphenyl)-2-(7,8-dihydroxy-2-oxo-2H-1-benzopyran-3-carboxamido)acetamido]-3-(1-methyl-5-tetrazolyl)-thiomethyl-3-cephem-4-carboxylic acid] | 0.4 (≈ 0.541 µM) | ≤ 0.05 | ≤ 0.05 | 0.1 (≈ 0.135 µM) | 12.5 (≈ 16.9 µM) | 3.13 (≈ 4.23 µM)
CCn1cc(C(=O)N[C@@H](C(=O)N[C@@H]2C(=O)N3C(C(=O)O)=C(CSc4nnnn4C)CS[C@H]23)c2ccc(OCC(=O)O)cc2)c(=O)c2cc(O)c(O)cc21 [Example 12, 7β-[D-2-(4-Carboxymethoxyphenyl)-2-(6,7-dihydroxy-1,4-dihydro-1-ethyl-4-oxoquinolin-3-carboxamido)-acetamido]-3-(1-methyl-5-tetrazolyl)thiomethyl-3-cephem-4-carboxylic acid] | 0.4 (≈ 0.522 µM) | 0.1 (≈ 0.13 µM) | ≤ 0.05 | ≤ 0.05 | 50 (≈ 65.2 µM) | 1.56 (≈ 2.03 µM)
CC(=O)Oc1ccc2c(=O)c(C(=O)N[C@@H](C(=O)N[C@@H]3C(=O)N4C(C(=O)O)=C(CSc5nnnn5CC(=O)O)CS[C@H]34)c3ccc(OCC(=O)O)cc3)coc2c1OC(C)=O [Example 16, 7β-[D-2-(4-carboxymethoxyphenyl)-2-(7,8-diacetoxy-4-oxo-4H-1-benzopyran-3-carboxamido)acetamido]-3-(1-carboxymethyl-5-tetrazolyl)thiomethyl-3-cephem-4-carboxylic acid] | 0.8 (≈ 0.922 µM) | 0.8 (≈ 0.922 µM) | 0.2 (≈ 0.23 µM) | 0.8 (≈ 0.922 µM) | 100 (≈ 115 µM) | 6.25 (≈ 7.2 µM)

More lines, now with the values ahead:

MIC [1] [µg/mL] | MIC [2] [µg/mL] | MIC [3] [µg/mL] | MIC [4] [µg/mL] | MIC [5] [µg/mL] | MIC [6] [µg/mL] | SMILES
0.8 | ≤ 0.05 | ≤ 0.05 | 0.2 | 3.13 | 1.56 | Cc1nnc(SCC2=C(C(=O)O)N3C(=O)[C@@H](NC(=O)[C@H](NC(=O)c4coc5cc(O)c(O)cc5c4=O)c4ccc(OCC(=O)O)cc4)[C@H]3SC2)s1 [Example 6, Disodium 7β-[D-2-(4-carboxymethoxyphenyl)-2-(6,7-dihydroxy-4-oxo-4H-1-benzopyran-3-carboxamido)-acetamido]-3-[5-methyl-2-(1,3,4-thiadiazolyl)]-thiomethyl-3-cephem-4-carboxylate]
0.4 (≈ 0.541 µM) | ≤ 0.05 | ≤ 0.05 | 0.2 (≈ 0.27 µM) | 25 (≈ 33.8 µM) | 1.56 (≈ 2.11 µM) | Cn1nnnc1SCC1=C(C(=O)O)N2C(=O)[C@@H](NC(=O)[C@H](NC(=O)c3coc4c(O)c(O)ccc4c3=O)c3ccc(OCC(=O)O)cc3)[C@H]2SC1 [Example 9, 7β-[D-2-(4-Carboxymethoxyphenyl)-2-(7,8-dihydroxy-4-oxo-4H-1-benzopyran-3-carboxamido)acetamido]-3-(1-methyl-5-tetrazolyl)thiomethyl-3-cephem-4-carboxylic acid]
0.4 | 0.1 | ≤ 0.05 | 0.2 | 25 | 3.13 | CN(C)CCn1nnnc1SCC1=C(C(=O)O)N2C(=O)[C@@H](NC(=O)[C@H](NC(=O)c3coc4cc(O)c(O)cc4c3=O)c3ccc(OCC(=O)O)cc3)[C@H]2SC1 [Example 14, Disodium 7β-[D-2-(4-carboxymethoxyphenyl)-2-(6,7-dihydroxy-4-oxo-4H-1-benzopyran-3-carboxamido)-acetamido]-3-[1-(2-N,N-dimethylaminoethyl)-5-tetrazolyl]-thiomethyl-3-cephem-4-carboxylate]
